# Test results from US7390874B2 (Kuboyama Bio Ken, Inc., priority 2003, dated 2008).
# Read-outs that look alike come from different tables or passages of the source. Ends that are not written are not given here.
# Columns and labels:
# [1] = Body weight gains of rats in the adjuvant-induced arthritis study; format: in vivo, male Sprague-Dawley rats
# Method: (§1) Rats weighting between 150-200 g were purchased from Animal Technologies Ltd., Kent, Wash. They were male Sprague-Dawley rats. The animals were kept individually in stainless steel cages with free access to water and feed (Harlan Teklan Rodent Diet). The light cycle was maintained at 12 hours light and 12 hours dark. The temperature was maintained at 22° C.±3° C. with a relative humidity of 40 to 70%.
# The test materials were given orally (by gavage) to each of 5 rats per treatment group once per day for 10 days. Administration of the test materials was initiated on the day of sensitization.
# (§2) The left hind paw was measured just before sensitization and again on Day 10. The plantar edema inhibitory rate and the body weight gain rate was determined by comparison with the non-sensitized rat groups.
# [2] = system: Adjuvant Induced Arthritis in Rats; test: Adjuvant-induced arthritis model in rats (paw weight, inhibition of inflammation); format: in vivo, male Sprague-Dawley rats
# Method: Adjuvant-induced arthritis responds to both steroids and non-steroids. The degree of inflammation will be assessed by measuring differences in foot weight and/or the foot volume.
# as §1
# […] The test compound and hydrocortisone were given by gavage.
# Male Sprague-Dawley rats (150-200 g) were sensitized by injecting Fruend's complete adjuvant (0.5% suspension of killed mycobacterium tuberculosis (H37RA, Difco, in mineral oil)). A 0.1 ml aliquot was administered intradermally at a plantar site on the right hind leg of each rat.
# The test materials were given orally (by gavage) to each of 5 rats per treatment group once per day for 10 days. […]
# as §2
# The paw weights for each group were averaged. Anti-inflammatory activity was determined by comparing paw weights calculated as follows: […]
# [3] = mice
# Method: One tenth (0.1 ml) of the above suspension is inoculated into the left hind leg muscle (hamstring muscle mass) of each mouse. The inoculated mice are placed into one large cage and then randomly segregated into groups of five mice. The mice are housed in shoe box cages on wood shavings with free access to water and laboratory chow. The mice are weighed on the day of inoculation, on day 7, day 12, at time of sacrifice.
Compound,Body Weight Gains of Rats ([1]; 10 mg/kg by gavage once per day for 10 days),"% Inhibition ([2]; 10 mg/kg by gavage once per day for 10 days, adjuvant-induced inflammation, rats) [%]","Raw Paw Weight ([2]; rats sensitized with Freund's complete adjuvant, oral gavage once per day for 10 days, Day 10, dose for this column not stated) [g]",Average Weight Gain ([3]; 1 mcg/kg dose by gavage for 11 days) [g],Average Weight Gain ([3]; 10 mcg/kg dose by gavage for 11 days) [g],weight gain associated with administration versus control (in words) ([3]; gavage for 11 days),Body Weight Gains of Rats ([1]; 1 mcg/kg by gavage once per day for 10 days),Body Weight Gains of Rats ([1]; 10 mcg/kg by gavage once per day for 10 days),"weight loss (in words) ([1]; rats, 10 mcg/kg and 1 mcg/kg by gavage for 10 days)"
C[C@]12CCC(=O)C=C1CC[C@@H]1[C@@H]2[C@@H](O)C[C@@]2(C)[C@H]1CC[C@]2(O)C(=O)CO [Hydrocortisone],22.2,95.6,0.69,,,,,,
"YGSRS [Peptide, tyrosine-glycine-serine-arginine-serine]",,,,1.85,1.87,comparable to the control,40.1,39.4,without inducing weight loss
